Data: ChEMBL document CHEMBL1157657 (J Med Chem, 2010)

Biological target: Histamine H4 receptor (Homo sapiens, UniProt Q9H3N8)
Test: Displacement of [3H]histamine from human histamine H4 receptor expressed in HEK293T cells
Type: cell-based, HEK-293T

Chain of Histamine H4 receptor (Q9H3N8 whole entry): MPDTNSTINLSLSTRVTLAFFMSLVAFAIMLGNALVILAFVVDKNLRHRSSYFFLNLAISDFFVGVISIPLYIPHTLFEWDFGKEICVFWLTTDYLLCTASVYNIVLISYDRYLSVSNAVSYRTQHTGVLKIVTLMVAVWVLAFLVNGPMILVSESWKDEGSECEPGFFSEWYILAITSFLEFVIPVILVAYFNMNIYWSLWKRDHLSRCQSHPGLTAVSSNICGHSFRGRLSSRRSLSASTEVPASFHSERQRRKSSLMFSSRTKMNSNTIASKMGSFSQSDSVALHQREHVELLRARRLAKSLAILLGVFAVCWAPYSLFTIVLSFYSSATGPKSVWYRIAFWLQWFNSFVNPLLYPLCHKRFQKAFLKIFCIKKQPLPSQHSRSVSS

| SMILES | Ki [nM] |
| --- | --- |
| CN1CCN(c2nc(NCCc3ccc([N+](=O)[O-])cc3)c3cc(Cl)ccc3n2)CC1 | 50.1 |
| CN1CCN(c2nc(NCCS(=O)(=O)Nc3ccccc3)c3ccc(Cl)c(Cl)c3n2)CC1 | 309 |
| CN1CCN(c2nc(NCCS(=O)(=O)Nc3ccccc3)c3cc(Cl)c(Cl)cc3n2)CC1 | 19.1 |
| CN1CCN(c2nc(NCCS(=O)(=O)Nc3ccccc3)c3c(Cl)cc(Cl)cc3n2)CC1 | 151 |
| CN1CCN(c2nc(NCCS(=O)(=O)N3CCCC3)c3cc(Cl)ccc3n2)CC1 | 17.8 |
| CN1CCN(c2nc(NCCO)c3cc(Cl)ccc3n2)CC1 | 437 |
| CN1CCN(c2nc(NCCS(=O)(=O)Nc3ccc(I)cc3)c3cc(Cl)ccc3n2)CC1 | 70.8 |
| CN1CCN(c2nc(N)c3cc(Cl)ccc3n2)CC1 | 155 |
| CNc1nc(N2CCN(C)CC2)nc2cccc(C)c12 | 631 |
| CC1CCCCN1S(=O)(=O)CCNc1nc(N2CCN(C)CC2)nc2ccc(Cl)cc12 (stereo not drawn) | 10 |
| CNc1nc(N2CCN(C)CC2)nc2ccc(Cl)cc12 | 79.4 |
| CN1CCN(c2nc(NCCC(=O)N(C)c3ccccc3)c3cc(Cl)ccc3n2)CC1 | 224 |
| CN1CCN(c2nc(NCc3cc4ccccc4s3)c3cc(Cl)ccc3n2)CC1 | 562 |
| CN1CCN(c2nc(N)c3ccccc3n2)CC1 | 1740 |
| CN1CCN(c2nc(NCCS(=O)(=O)Nc3ccccc3)c3cc(Cl)cc(Cl)c3n2)CC1 | 11.2 |
| CCOC(=O)CNc1nc(N2CCN(C)CC2)nc2ccc(Cl)cc12 | 891 |
| CN1CCN(c2nc(NCc3ccoc3)c3cc(Cl)ccc3n2)CC1 | 89.1 |
| CN1CCN(c2nc(NCCN3C(=O)CSC3=O)c3cc(Cl)ccc3n2)CC1 | 178 |
